The subject of test [1] is bladder cancer cell lines. Put plainly: Cell proliferation, CellTiter-Glo, 72 hours. Type of test: cell-based, human. The conditions noted are these: three bladder cancer cell lines. On the technique in general: In ATP-based viability assays light output follows the ATP content of the culture.
Test [2] deals with phosphorylation of 4E-BP1 in T24 cells. Put plainly: Phosphorylation of 4E-BP1 by western blot. The format is cell-based, human. The following applies: 1 μM, 24h.
The target in test [3] is 97 kinases. Nature of the test: KINOMEscan profiling. Type of test: binding. The following applies: 97 kinases examined.
In test [4] the test system is other CK1 isoforms. Put plainly: Specificity among CK1 isoforms. The format is biochemical.

For the molecule `Fc1ccc2[nH]c(CNc3nc(N4CCOCC4)nc4c3ncn4-c3ccc4ccccc4c3)nc2c1F` [SR-4133, N-((4,5-difluoro-1H-benzo[d]imidazol-2-yl)methyl)-2-morpholino-9-(naphthalen-2-yl)-9Hpurin-6-amine], the “Antiproliferative potency, EC50” value in test [1] is listed as “high nanomolar”. In addition, in test [2], the “Inhibition of phosphorylation of T37/46, S65 and T70 of 4E-BP1” value is “blocks the phosphorylation”. For the same molecule, the KINOMEscan binding affinity result in test [3] is “weak binding affinity only to CK1δ, PDGFRB, and TRKA”. In addition, the “Inhibition of other CK1 isoforms” value in test [4] is on record as “do not inhibit”.
Consider `COc1ccc(-n2cnc3c(NCc4nc5c(F)c(F)ccc5[nH]4)nc(N4CCOCC4)nc32)cc1` [SR-4310, N-((6,7-difluoro-1H-benzo[d]imidazol-2-yl)methyl)-9-(4-methoxyphenyl)-2-morpholino-9H-purin-6-amine], for which the “Antiproliferative potency, EC50” value in test [1] is reported as “nanomolar”. In test [4], the “Inhibition of other CK1 isoforms” value is “do not inhibit”.

(Values after article PMC10304650 (Journal of medicinal chemistry, 2023).)
